Experimental data as given in patent US20220257764A1, “USE OF DIKETONE COMPOUND IN PHOTODYNAMIC THERAPY OR DIAGNOSIS” (BEIJING WHOLESOMETECH CO., LTD., priority 2019, published 2022).
Like-named read-outs stand apart in the source and are kept apart here.

Assays:
Assay type in all cases: cell-based
[1] = system: human immortalized keratinocyte (Hacat cells); test: MTT cytotoxicity to normal cells, Experimental Example 5; conditions: given under red light, 630-650 nm, 110 mW/cm^2, 900 s, 3 h incubation
Description: (1) Logarithmic phase cells were collected, the concentration of a cell suspension was adjusted, the cell suspension was added to a cell culture plate in a dose of 100 μL per well, and the cells were then added to a cell culture plate so that the density of the cells to be tested was adjusted to 1000-10000 wells (edge wells were filled with sterile PBS). […] Generally, the drug in 5 to 7 gradients was added in a dose of 100 μL per well, and 3 to 5 wells were set for each concentration of a drug. […] Cells in the experimental photosensitizer-light irradiation group were incubated for 15 min and then irradiated with light. […] After light irradiation, the cells were washed with PBS. […] After light irradiation, the cells were washed with PBS. […] If the drug could react with the MTT, centrifuging was carried out first, and then the culture solution was discarded and the cells were carefully washed twice or three times with PBS, and then the culture solution containing MTT was added. (6) The culture was terminated and the culture solution in the wells was carefully removed. (7) Dimethyl sulfoxide was added in a dose of 150 μL per well, and the plate was then shaken on a shaker at a low speed for 10 min to fully dissolve crystals. The absorbance at OD 490 nm of each well was measured with enzyme-linked immunoassay. […]

Hela cells = test: MTT toxicity to tumor cells, under light and in the dark; conditions: Homo sapiens
Description: (§1) In this experimental example, the toxicity of the compound to tumor cells was tested by an MTT method including the following specific steps.
(§2) (1) Logarithmic cells were collected, the concentration of a cell suspension was adjusted, the cell suspension was added to a cell culture plate in a dose of 100 μL per well, and the cells were then added to a cell culture plate so that the density of the cells to be tested was adjusted to 1000-10000 wells (edge wells were filled with sterile PBS).
(§3) (2) The cells were incubated at 37° C. in the presence of 5% CO2 until the cells in a single layer covered the bottom of each well (96-well flat-bottom plate), and a drug in concentration gradients was added. Generally, the drug in 5 to 7 gradients was added in a dose of 100 μL per well, and 3 to 5 multi-wells were set.
(§4) (3) The cells were randomly divided into treated groups under light and treated groups in the dark, incubated at 37° C. in the presence of 5% CO2 for 16 h to 48 h, and observed with an inverted microscope.
(§5) (4) The cells were irradiated for 900 s with a laser having a wavelength of 450 nm to 480 nm (at an intensity of 110 mW/cm^2), and the final light dose was about 100 J/cm^2. After light irradiation, the cells were washed with PBS.
(§6) (5) An MTT solution (5 mg/ml, 0.5% MTT) was added in a dose of 20 μL per well to further incubate the cells for 4 h. If the drug could react with the MTT, centrifuging was carried out first, and then the culture solution was discarded and the cells were carefully washed twice or three times with PBS, and then the culture solution containing MTT was added.
(§7) (6) The culture was terminated and the culture solution in the wells was carefully removed.
(§8) (7) Dimethyl sulfoxide was added in a dose of 150 μL per well, and the plate was then shaken on a shaker at a low speed for 10 min to fully dissolve crystals. The absorbance at OD 490 nm of each well was measured with enzyme-linked immunoassay.
(§9) (8) Zero adjustment wells (medium, MTT, dimethyl sulfoxide) and control wells (cells, dissolving media of the same concentration, culture solution, MTT, dimethyl sulfoxide) were set at the same time.

SW480 colon cancer cells = test: as above; conditions: Homo sapiens
Description: as §1, §2, §3, §4, §5, §6, §7, §8, §9

Escherichia coli = test: Inhibitory effect on bacteria (colony counting), under light and in the dark
Description: A single Escherichia coli colony was transferred from a solid Luria Bertani (LB) agar plate to 5 ml liquid LB medium and incubated at 37° C. for 12 h. Bacteria were collected by centrifugation (7000 rpm, 1 min) and washed with PBS buffer three times. The supernatant was discarded, and the remaining Escherichia coli cells were resuspended in the PBS buffer. The bacterial suspension was adjusted to make its optical density (OD600) to 1.0. The suspension was then diluted (5 times) with PBS buffer. The diluted Escherichia coli cell suspension was incubated in the dark at 37° C. for 15 min in the presence of a photosensitizer (diketone compound) solution with a concentration of 60 mM, and then irradiated for 200 s under a 15 mW/cm^2 laser light (with a wavelength of 450 nm to 480 nm and in the final light dose of about 3 J cm^2), and after the irradiation the bacterial suspension was serially diluted (10^4 times) with PBS buffer. 100 μL of the diluted bacterial Escherichia coli cell was dispersed on a solid LB agar plate and incubated at 37° C. for 12 h to 16 h, and colonies formed were counted. In the meanwhile, a treated group in the dark and an untreated group in the dark were set; the inhibition rate was determined by dividing the number of colony forming units (cfu) killed in the treated group under light or the treated group in the dark by the number of colony forming units (cfu) killed in the untreated group in the dark.

B16 melanoma cell = test: MTT toxicity to tumor cells, under light and in the dark; conditions: Mus musculus, under light, 450-480 nm laser, 110 mW/cm^2, 900 s
Description: as §1, §2, §3, §4, §5, §6, §7, §8, §9

[2] = SW480, under light, 450-480 nm laser, 110 mW/cm^2, 900 s
[3] = read-out: Inhibition rate in the dark
[4] = read-out: Inhibition rate under light
[5] = under light, 450-480 nm laser, 110 mW/cm^2, 900 s
[6] = 60 mM, 450-480 nm laser, 15 mW/cm^2, 200 s, read-out: Inhibition rate under light
[7] = 60 mM, in the dark, read-out: Inhibition rate in the dark

SMILES	cytotoxicity to Hacat cells [1]	IC50 (Hela cells; in the dark) [µM]	IC50 (SW480 colon cancer cells; [2]) [µM]	inhibition at 60000 µM (Escherichia coli; [3]) [%]	inhibition at 60000 µM (Escherichia coli; [4]) [%]	IC50 (B16 melanoma cell) [µM]	IC50 (Hela cells; [5]) [µM]	inhibition at 60000 µM (Escherichia coli; [6]) [%]	inhibition at 60000 µM (Escherichia coli; [7]) [%]	IC50 (SW480 colon cancer cells; SW480, in the dark) [µM]
NCC(=O)CCC(=O)O [ALA, 5-α aminolevulinic acid, reference compound]	relatively high cytotoxicity									
CCC(=O)C(=O)CC [BJMU-201]		59.9 ± 9.9	63.9 ± 10.5	4.9	58					
CCCC(=O)C(C)=O [BJMU-202]			2.5 ± 0.5			2.9 ± 0.1	2.6 ± 0.6	90 ± 3	8.6	
CC(=O)C(=O)CBr [BJMU-203]			3.1 ± 0.5			2.7 ± 0.9	2.8 ± 1.1	93	4.5	
CCCCC(=O)C(C)=O [BJMU-205]			6.4 ± 1.9			6.6 ± 1.8	5.7 ± 1.7	80	2	
CC(=O)C(=O)CC(C)C [BJMU-206]			144 ± 31.9			144 ± 32.5	141 ± 37.4	46	11.5	
O=C(O)C(=O)c1ccccc1 [BJMU-207]			99.2 ± 25.7			96.6 ± 26.3	93.3 ± 20.3	64	7.3	
CC(=O)C(=O)O [BJMU-208]			173 ± 10.8			174 ± 10.9	162 ± 10.1	45	8	
O=C(C(=O)c1ccccc1)c1ccccc1 [BJMU-209]		8200 ± 530	7800 ± 480	9.5	26					
O=C(C(=O)c1ccncc1)c1ccncc1 [BJMU-210]			9600 ± 600			9800 ± 700	9900 ± 700	24	6.4	
O=C(C(=O)c1ccc(Br)cc1)c1ccc(Br)cc1 [BJMU-211]			3200 ± 230							95000 ± 21300
O=C(C(=O)c1ccc(F)cc1)c1ccc(F)cc1 [BJMU-212]			2800 ± 210							99000 ± 15800
COc1ccc(C(=O)C(=O)c2ccc(OC)cc2)cc1 [BJMU-213]		6400 ± 400	6600 ± 370							
O=C(C(=O)c1ccco1)c1ccco1 [BJMU-214]			8900 ± 500			9000 ± 510	8800 ± 480	23	5.6	
